These results are taken from ChEMBL document CHEMBL6074662, “Antibacterial, Antibiofilm, and Anti-inflammatory Effects of a Novel Thrombin-Derived Peptide in Sepsis Models: Insights into Underlying Mechanisms” (J Med Chem, 2024).

The source made the active and inactive calls. The calls are words filed in the database; no cut-off is given here.

Usually MIC stands for the lowest concentration found to suppress growth. Usually inhibition stands for the relative decrease from the control value, in per cent.

Series [1] has as its system Staphylococcus aureus. The series is described as follows: Synergistic antibacterial activity against methicillin-resistant Staphylococcus aureus CCARM 3089 assessed as fractional inhibitory concentration index by measuring ratio of MIC of Chloramphenicol in presence of compound to MIC to Chloramphenicol incubated for 24 hrs by broth microdilution method. Format: functional.

Series [2] deals with Acinetobacter baumannii. The series is described as follows: Antibacterial activity against carbapenem-resistant Acinetobacter baumannii NMS 1915 incubated for 24 hrs by CLSI based broth microdilution method. In kind it is functional. A general note: Broth dilution looks for growth in wells or tubes with falling amounts of substance.
Series [3] concerns Escherichia coli. Nature of the series: Antibacterial activity against Escherichia coli KCTC 1682 assessed as zone of clearance incubated for 4 hrs in presence of alpha-chymotrypsin by radical diffusion assay. In kind it is functional, organism-based.
For series [4], the system named is Staphylococcus aureus. The series is described as follows: Synergistic antibacterial activity against methicillin-resistant Staphylococcus aureus CCARM 3089 assessed as fractional inhibitory concentration index incubated for 24 hrs in presence of Oxacillin by broth microdilution method. In kind it is functional.
The subject of series [5] is Staphylococcus aureus. Nature of the series: Antibacterial activity against methicillin-resistant Staphylococcus aureus CCARM 3090 incubated for 24 hrs by CLSI based broth microdilution method. In kind it is functional.
In the next series the test system is Pseudomonas aeruginosa. The series is described as follows: Synergistic antibacterial activity against multi-drug resistant Pseudomonas aeruginosa CCARM 2095 assessed as MIC of Ciprofloxacin incubated for 24 hrs by broth microdilution method. Format: functional.
In series [6] the test system is Staphylococcus aureus. The series is described as follows: Antibacterial activity against methicillin-resistant Staphylococcus aureus CCARM 3089 incubated for 24 hrs by CLSI based broth microdilution method. Format: functional.
A short description of series [7]: Effect on secondary structure of drug in PBS assessed as formation of random coil structure at 150 uM by CD analysis. The conditions noted are these: buffer. Format: physicochemical.
Series [8] deals with Staphylococcus aureus. Nature of the series: Antibacterial activity against Staphylococcus aureus KCTC 1621 incubated for 24 hrs by CLSI based broth microdilution method. Format: functional.
The test system of series [9] is Escherichia coli. Nature of the series: Induction of resistance development in Escherichia coli KCTC 1682 at 0.5 times MIC measured after 30 passages. In kind it is functional, organism-based.
The test system of series [10] is Escherichia coli. Nature of the series: Induction of cytoplasmic membrane depolarization in Escherichia coli KCTC 1682 at 0.5 times MIC measured for 500 secs by diSC3-5 dye based analysis relative to control. Format: functional. The following applies: time 500 sec; 0.1389 h.
In series [11] the test system is Staphylococcus aureus. The series is described as follows: Synergistic antibacterial activity against methicillin-resistant Staphylococcus aureus CCARM 3089 assessed as fractional inhibitory concentration index incubated for 24 hrs in presence of Ciprofloxacin by broth microdilution method. Format: functional.
The subject of series [12] is Escherichia coli. Nature of the series: Antibacterial activity against Escherichia coli KCTC 1682 incubated for 24 hrs in presence of KCl by CLSI based broth microdilution method. Format: functional.
The subject of series [13] is Escherichia coli. Nature of the series: Induction of inner membrane permeabilization in Escherichia coli KCTC 1682 at 0.5 times MIC by PI staining based flow cytometry (reference value: 1.51 %). Format: functional. In general terms: A flow cytometer gives signals particle by particle.
Series [14] relates to Acinetobacter baumannii. Nature of the series: Antibacterial activity against carbapenem-resistant Acinetobacter baumannii 1707 incubated for 24 hrs by CLSI based broth microdilution method. In kind it is functional, organism-based.
For series [15], the target named is Toll-like receptor 4 (Homo sapiens) (UniProt O00206). Nature of the series: Inhibition of LPS-induced human TLR4 activation expressed in HEK-Blue hTLR4 cells assessed as decrease in SEAP activity at 12.5 uM pretreated for 1 hr followed by LPS treatment for 16 hrs by absorbance based assay relative to control. In kind it is cell-based. The conditions noted are these: time 17.0 hrs.
Sequence of Toll-like receptor 4 (Homo sapiens) (O00206 whole entry): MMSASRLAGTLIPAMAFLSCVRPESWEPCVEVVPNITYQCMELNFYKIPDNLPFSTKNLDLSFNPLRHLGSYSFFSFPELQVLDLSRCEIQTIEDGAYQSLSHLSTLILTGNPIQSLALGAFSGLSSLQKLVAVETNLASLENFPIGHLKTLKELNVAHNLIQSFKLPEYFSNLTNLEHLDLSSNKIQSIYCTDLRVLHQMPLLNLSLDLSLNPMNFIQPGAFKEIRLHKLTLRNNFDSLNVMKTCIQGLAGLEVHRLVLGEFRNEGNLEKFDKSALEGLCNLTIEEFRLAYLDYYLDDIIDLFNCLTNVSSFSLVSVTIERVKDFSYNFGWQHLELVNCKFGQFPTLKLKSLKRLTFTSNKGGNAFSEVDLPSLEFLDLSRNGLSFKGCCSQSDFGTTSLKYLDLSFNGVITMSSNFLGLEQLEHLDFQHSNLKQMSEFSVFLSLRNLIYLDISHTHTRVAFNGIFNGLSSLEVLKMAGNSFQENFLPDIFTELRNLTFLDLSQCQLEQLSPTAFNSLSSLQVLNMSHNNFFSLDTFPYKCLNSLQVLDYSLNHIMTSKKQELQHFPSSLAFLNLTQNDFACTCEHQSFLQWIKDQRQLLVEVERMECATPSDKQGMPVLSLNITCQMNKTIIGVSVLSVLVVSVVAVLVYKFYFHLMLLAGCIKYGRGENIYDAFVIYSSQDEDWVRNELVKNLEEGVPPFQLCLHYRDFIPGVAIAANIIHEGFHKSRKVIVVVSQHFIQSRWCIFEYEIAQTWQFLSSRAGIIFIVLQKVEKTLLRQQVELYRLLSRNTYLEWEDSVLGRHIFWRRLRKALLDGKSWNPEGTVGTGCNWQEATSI

Series [16] is described as follows: Effect on secondary structure of drug in LPS assessed as formation of left-handed alpha-helical conformation at 150 uM by CD analysis. Format: physicochemical.
In series [17] the target is T1, Toll-like receptor 4 (Mus musculus) (UniProt Q9QUK6).
T1 sequence (whole entry): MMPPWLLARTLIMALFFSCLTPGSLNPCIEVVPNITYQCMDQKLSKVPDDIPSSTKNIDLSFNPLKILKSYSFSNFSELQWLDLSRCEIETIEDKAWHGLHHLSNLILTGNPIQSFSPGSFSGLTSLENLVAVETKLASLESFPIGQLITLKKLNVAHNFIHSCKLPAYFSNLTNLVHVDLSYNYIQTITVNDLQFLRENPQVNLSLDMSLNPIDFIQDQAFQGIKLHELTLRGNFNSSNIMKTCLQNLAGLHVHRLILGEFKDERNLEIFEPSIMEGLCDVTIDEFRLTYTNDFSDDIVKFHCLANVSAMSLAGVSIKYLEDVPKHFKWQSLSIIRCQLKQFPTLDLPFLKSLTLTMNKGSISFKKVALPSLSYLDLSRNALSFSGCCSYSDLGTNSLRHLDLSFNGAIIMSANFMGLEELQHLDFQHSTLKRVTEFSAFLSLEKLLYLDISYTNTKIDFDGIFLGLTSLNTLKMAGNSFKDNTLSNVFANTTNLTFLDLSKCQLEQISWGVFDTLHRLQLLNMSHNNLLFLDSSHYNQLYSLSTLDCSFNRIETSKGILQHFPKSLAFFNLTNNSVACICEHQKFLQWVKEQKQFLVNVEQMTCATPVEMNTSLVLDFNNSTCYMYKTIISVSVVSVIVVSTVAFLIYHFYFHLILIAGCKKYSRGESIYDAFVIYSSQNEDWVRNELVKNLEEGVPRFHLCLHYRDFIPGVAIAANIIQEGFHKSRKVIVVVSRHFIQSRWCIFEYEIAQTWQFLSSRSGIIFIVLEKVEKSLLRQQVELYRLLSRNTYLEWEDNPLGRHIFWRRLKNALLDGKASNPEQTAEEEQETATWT
The series is described as follows: Inhibition of LPS-induced TLR4 activation in mouse RAW264.7 cells assessed as decrease in phosphorylated NF-kappaB nuclear translocation at 10 uM pretreated for 1 hr followed by LPS treatment for 30 mins by CLSM analysis. In kind it is cell-based. The conditions noted are these: time 90.0 min.

Series [18] has as its system Lipopolysaccharide (LPS). The series is described as follows: Displacement of BODIPY-TR-cadaverine from cell-free LPS (unknown origin) at 8 uM incubated for 30 mins by fluorescence based assay relative to control.
Series [19] concerns Mus musculus. The series is described as follows: Antiseptic activity in sepsis shock ICR mouse model infected with carbapenem-resistant Acinetobacter baumannii assessed as reduction in bacterial count in kidney at 1 mg/kg, ip pretreated with compound for 3 hrs followed by bacterial infection measured after 16 hrs relative to control. The following applies: time 19 hrs. Format: functional. On the set-up: scale not given: the % may be the effect or the level left.

Series [20] deals with T1, Toll-like receptor 4 (Mus musculus). The series is described as follows: Inhibition of LPS-induced TLR4 activation in mouse RAW264.7 cells assessed as decrease in JNK phosphorylation at 2 uM pretreated for 1 hr followed by LPS treatment for 30 mins by Western blot analysis relative to control. Format: cell-based. The following applies: time 90.0 min. In general terms: A western blot detects proteins with antibodies after separation by electrophoresis.

The test system of series [21] is Mus musculus. Nature of the series: Antiseptic activity in sepsis shock ICR mouse model infected with carbapenem-resistant Acinetobacter baumannii assessed as decrease in AST level in serum at 1 mg/kg, ip pretreated with compound for 1 hr followed by bacterial infection measured after 16 hrs relative to control. On the set-up: scale not given: the % may be the effect or the level left. In kind it is functional. The conditions noted are these: time 17 hrs.

Series [22] deals with Mus musculus. Nature of the series: Antiseptic activity in sepsis shock ICR mouse model infected with carbapenem-resistant Acinetobacter baumannii assessed as reduction in serum IL-6 level at 1 mg/kg, ip pre-infected with bacteria followed by compound administration 1 hr post-infection measured after 16 hrs relative to control. Format: functional. On the set-up: scale not given: the % may be the effect or the level left.

Series [23] concerns Mus musculus. Nature of the series: Antiseptic activity in sepsis shock ICR mouse model infected with carbapenem-resistant Acinetobacter baumannii assessed as reduction in bacterial count in lungs at 1 mg/kg, ip pretreated with compound for 3 hrs followed by bacterial infection measured after 16 hrs relative to control. Format: functional. On the set-up: scale not given: the % may be the effect or the level left. The following applies: time 19 hrs.

For series [24], the system named is Lipopolysaccharide (LPS). Nature of the series: Displacement of BODIPY-TR-cadaverine from Escherichia coli 0111:B4 LPS at 8 uM incubated for 30 mins by fluorescence based assay relative to control.

Consider H-GVFRLKKWIKKVIKKWGK-NH2, for which the FIC with Staphylococcus aureus [1] is given as 0.25. Moreover, the MIC stood at 2 µM in the series on Acinetobacter baumannii [2]; 8 µM against Staphylococcus aureus [5]; 128 µM with Pseudomonas aeruginosa; 8 µM in the series on Staphylococcus aureus [6]; 8 µM with Staphylococcus aureus [8]; 32 µM in the series with Escherichia coli [12]. Also, the result in the series on Escherichia coli [3] and in the series on Escherichia coli [9] was inactive. Also, the “fractional inhibitory concentration index (FICI)” value in the series on Staphylococcus aureus [4] worked out at 0.313; with Staphylococcus aureus [11] it was 0.75. Further, the Activity entry in series [7] is on record as “Active”; in the series on Escherichia coli [10], about 50%; in the series with Escherichia coli [13], about 100%.
For H-GVFRLKKWLKKVKKWGK-NH2, the FIC in the series on Staphylococcus aureus [1] turned out to be 0.5. The result with Acinetobacter baumannii [14] was Active. Further, the figures for the inhibition in [15] and in series [20] were 92.1% and 52%, respectively. Moreover, the MIC with Acinetobacter baumannii [2] was determined as 4 µM; with Staphylococcus aureus [5], 8 µM; in the series on Pseudomonas aeruginosa, 256 µM; against Staphylococcus aureus [6], 8 µM; with Staphylococcus aureus [8] it was 8 µM; in the series on Escherichia coli [12], 16 µM. In addition, the Activity entry in [16] is “Active”; with Lipopolysaccharide (LPS) [18] it was 56%; in the series with Mus musculus [19], 98.5%; in the series with Mus musculus [21], 31.8%; in the series with Mus musculus [22], 97.9%; in [7], “Active”. The Activity is about 50% in the series with Escherichia coli [10], 98% with Mus musculus [23], 38% with Lipopolysaccharide (LPS) [24] and about 100% in the series on Escherichia coli [13]. Moreover, the inhibition result in series [17] is “Active”. Besides, the “fractional inhibitory concentration index (FICI)” value in the series with Staphylococcus aureus [4] was 0.313; in the series with Staphylococcus aureus [11], 1. Moreover, in the series on Escherichia coli [9], the outcome was inactive.
